Experimental findings from the METLIN SMRT retention time set (Domingo-Almenara et al. 2019) are described below.

Each structure is given as a SMILES string.

A short description of the data set: gradient 5% acetonitrile 3 min, to 50% in 2 min, to 85% in 15 min, held 3 min, 100 µL/min. As to conditions: column: Zorbax Extend-C18 2.1 x 50 mm; eluents: water / acetonitrile, 0.1% formic acid. In a few lines: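 In both positive and negative ionization mode, a quadrupole time-of-flight mass spectrometer coupled to HPLC analyzed pure standards run in mixtures of ~100 molecules. The Zorbax Extend-C18 column (2.1 × 50 mm, 1.8 μm) was operated at 100 μL/min with water and acetonitrile, each containing 0.1% formic acid. The dead volume was 40 μL and the dwell volume 900 μL. Retention time came from adduct peaks that were computationally picked and individually inspected by hand.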
In turn, `CCN1CCN(C(=O)Cc2csc(-n3nc(C)c(Cl)c3C)n2)CC1` registered an RP-LC retention time of 691 s. Turning to `COCCNC(=O)C1CCCN(C(=O)c2[nH]c(C)cc2C)C1` (stereo unspecified), the RP-LC retention time is 644 s. In the case of `CC(=O)Nc1ccc(C2(C(=O)NCc3cccc(Cl)c3)CCC2)cc1`, the RP-LC retention time was 785 s. As to `CCOC(=O)c1[nH]c(C)c(CCC(=O)N2CCC(C(=O)NCc3ccc(CC)cc3)CC2)c1C`, the RP-LC retention time amounted to 867 s. `Cc1cc(C)c(NC(=O)Cn2cc3c(n2)CCCC3)c(C)c1` came in with an RP-LC retention time of 969 s. `O=C(CCn1cnc2cc(-c3noc(-c4ccccc4F)n3)ccc21)N1CCCC1` returned an RP-LC retention time of 730 s. `COc1cc(C(=O)Nc2c(-c3ccc(F)cc3)nc3ccccn23)cc(OC)c1OC` showed an RP-LC retention time of 657 s. The same measure for `CCc1noc(NC(C)=O)c1-c1ccc(OC)c(S(=O)(=O)NC(C)C)c1`: 695 s. In the case of `COc1ccc(C(=O)Nc2nccnc2C(=O)NCC2CCCCC2)cc1` it was 1120 s; in that of `CCCCOc1ccc(NC(=O)Nc2ccc(N3CCCS3(=O)=O)cc2)cc1`, 851 s. The same measure for `Cc1ccc(C)c(NC(=O)CC2COc3ccccc3NC2=O)c1` (stereo unspecified): 738 s; for `Cc1nn(C(C)C(=O)NCCN(C)Cc2ccccc2)c(=O)c2c(C)n(-c3ccccc3)nc12` (stereo unspecified): 686 s; for `CCc1ccc(S(=O)(=O)NCCc2csc(-c3cccnc3)n2)s1`: 734 s. In turn, `Cc1cc(C)cc(NS(=O)(=O)c2ccc(-c3nnc(C4CCC4)o3)o2)c1` gave an RP-LC retention time of 996 s. In turn, `CC1CCCN(c2nc(=O)n(CC(=O)Nc3ccc4c(c3)OCCO4)c3ccccc23)C1` (stereo unspecified) gave an RP-LC retention time of 780 s. In turn, `CCOC(=O)c1csc(NC(=O)c2ccccc2Br)n1` had an RP-LC retention time of 780 s. In the case of `COc1ccc(-c2nn(-c3ccccc3)cc2C2NC(=O)NC(C)=C2C(=O)OC(C)C)cc1` (stereo unspecified), the RP-LC retention time stood at 906 s. As to `O=C1CC(CNS(=O)(=O)c2ccc3c(c2)OCCO3)CN1c1ccc(Cl)cc1` (stereo unspecified), the RP-LC retention time came out at 788 s. The same measure for `CN1CC[C@@]23CCCC[C@@H]2[C@@H]1Cc1ccc(O)cc13`: 644 s; for `COc1ccc(F)cc1S(=O)(=O)N1CCc2nn(CC3CC3)c(=O)n2CC1`: 834 s. The compound `Cn1cccc(C(=O)Nc2nc3c(s2)CN(S(=O)(=O)C2CC2)CC3)c1=O` came in with an RP-LC retention time of 645 s. `Oc1ccc2c(ccc3[nH]cnc32)c1` registered an RP-LC retention time of 622 s. The compound `COC(=O)C1=C(C)NC(SCC(=O)NC2CCCCC2)=C(C#N)C1c1ccccc1F` (stereo unspecified) registered an RP-LC retention time of 1020 s. The same measure for `COc1ccc(-c2cc(C(=O)N3CCN(C)CC3)nn2C2CCS(=O)(=O)C2)cc1` (stereo unspecified): 613 s.

The compound `O=C(Nc1cnc(-c2ccccc2)nc1)C1CCCC1` yielded an RP-LC retention time of 936 s. In turn, `Cc1oc(-c2ccc(NC(=O)COc3ccccc3)cc2)nc1Cn1cccn1` yielded an RP-LC retention time of 887 s. Consider `Cc1nccn1-c1ccc(=O)n(CCNC(=O)c2cccc(C(F)(F)F)c2)n1`, for which the RP-LC retention time came out at 551 s. In turn, `Cc1nn(-c2ccc(N3CCOCC3)nn2)c(C)c1CCC(=O)Nc1ccc(F)cc1F` returned an RP-LC retention time of 719 s. In turn, `O=C(CSc1nc2ccccc2[nH]1)Nc1nccs1` displayed an RP-LC retention time of 613 s. In the case of `O=c1c2cc3c(cc2nc(SCc2nc(-c4ccccc4)no2)n1Cc1ccccc1)OCO3` it was 1240 s. In turn, `Cc1cccc(-c2nc(N3CCCCCC3)c3ccccc3n2)c1` displayed an RP-LC retention time of 848 s. With `Cc1cnc(C2CN(CC3CCCCC3)C2)n1Cc1ccccc1`, the RP-LC retention time came to 600 s.

`CN1CCCC2C(c3ccccc3)C(C3=NCCCC3)C(c3ccccc3)CC21` (stereo unspecified) returned an RP-LC retention time of 589 s.

With `Cc1nc(Cn2cccc2C(=O)Nc2ccccc2)no1`, the RP-LC retention time is 820 s.

For the compound `Cc1ccc(CN2C(=O)C3(CCOCC3)CC2c2nnnn2C(C)(C)C)cc1` (stereo unspecified), the RP-LC retention time came to 783 s.

In turn, `Cc1cc2nn(CC(=O)N(C)c3ccccc3)c(=O)n2c(Nc2ccc(F)cc2)n1` returned an RP-LC retention time of 1010 s. For `O=C(Cn1cnc2c(-c3ccc(F)cc3)csc2c1=O)Nc1ccc(Br)cc1F`, the RP-LC retention time is 1030 s. In turn, `Cc1ccc(CNC(=O)Cn2c(=O)c3nnc(C)n3c3ncccc32)cc1` came in with an RP-LC retention time of 692 s.

Regarding `O=C(NCCS(=O)(=O)N1CCN(c2ncccn2)CC1)c1cccs1`, the RP-LC retention time came out at 663 s.

Regarding `Cc1noc(CNC(=O)C2CCN(C(=O)C(C)(C)Oc3ccc(Cl)cc3)CC2)n1`, the RP-LC retention time came out at 772 s. The same measure for `COc1cc(C(=O)N2CCC3(CC2)NC(=O)c2cc(F)ccc2N3C)cc(OC)c1OC`: 655 s. In turn, `Nc1nc(SCC(=O)c2ccc3c(c2)OCCO3)n[nH]1` came in with an RP-LC retention time of 574 s. The same measure for `COc1cccc2oc(-c3ccccc3)cc(=O)c12`: 900 s. `CCOc1ccc(Nc2c(-c3cccc(O)c3)nc3cnccn23)cc1` gave an RP-LC retention time of 746 s. The same measure for `Cc1ccc(-c2cc(C(N)=O)c3ccccc3n2)cc1`: 784 s.

Compound `Cc1ccc(NC(=O)C(C)C2CCN(C(=O)Nc3ccc(Cl)cc3)CC2)cc1` (stereo unspecified) had an RP-LC retention time of 963 s.

With `Cc1ccc(-c2nc(-c3ccc4c(c3)oc(=O)n4C(C)C)no2)cc1`, the RP-LC retention time came out at 1280 s. Regarding `Clc1ccc(-c2nc(N3CCN(C4CCCCC4)CC3)c3ccccc3n2)cc1`, the RP-LC retention time was 562 s. In turn, `O=c1n(Cc2c(F)cccc2Cl)nc2c(S(=O)(=O)N3CCCC3)cccn12` displayed an RP-LC retention time of 840 s. `CC(=O)Nc1nc(-c2ccc(S(=O)(=O)N3CCN(c4ccccc4)CC3)cc2)cs1`: the RP-LC retention time worked out at 960 s.

Compound `Cc1nn(C(C)C(=O)NCCCN(C)C2CCCCC2)c(=O)c2c(C)n(-c3ccccc3)nc12` (stereo unspecified) registered an RP-LC retention time of 675 s.

`Cc1ccc(-n2ncc3c(=O)n(Cc4nc(-c5cccc(C(F)(F)F)c5)no4)cnc32)cc1` displayed an RP-LC retention time of 1180 s. `Cc1cc2c(=O)n(CC(=O)Nc3ccc(Br)cc3F)ccc2s1` displayed an RP-LC retention time of 869 s. The same measure for `Cc1ccc(CNS(=O)(=O)c2cc(-c3cc(C(F)(F)F)on3)sc2C)cc1`: 1230 s; for `CC(C)NC(=O)c1nnn(-c2ccccc2)c1-c1cccnc1`: 713 s. `Cc1ccc2c(c1)N(S(C)(=O)=O)CCC(C(=O)Nc1ccccc1C(C)C)O2` (stereo unspecified): the RP-LC retention time came out at 1020 s.

For the compound `Cc1ccc(CNC(=O)Cn2nc3c4ccc(Cl)cc4ncn3c2=O)cc1`, the RP-LC retention time was 753 s. With `Cc1ccc(NC(=O)C2CC(=O)N(c3n[nH]c4cc(Br)ccc34)C2)cc1` (stereo unspecified), the RP-LC retention time stood at 839 s.

In turn, `Cn1c(N2CCN(C(=O)Cc3ccc(Cl)cc3)CC2)cc(=O)n(C)c1=O` displayed an RP-LC retention time of 677 s.

In the case of `O=C(Cn1ncc2c(c1=O)N(CC1CC1)C(=O)CS2)Nc1ccccc1C(F)(F)F`, the RP-LC retention time stood at 831 s. The compound `COc1ccccc1-c1noc(C2CCCN2C(=O)c2ccc(NC(C)=O)cc2)n1` (stereo unspecified) gave an RP-LC retention time of 713 s.

For `COC(=O)C1C(=O)C2=C(CC1C)NC(C)=C(C(=O)OC(C)C)C2c1ccccc1OC` (stereo unspecified), the RP-LC retention time stood at 908 s. `COc1ccccc1NC(=O)Cn1cccc1-c1nnc(C2CCC2)o1`: the RP-LC retention time came out at 942 s. On to `CC(C)C(=O)N1CCc2c(c(C(=O)N3CCC(C(=O)N4CCCCCC4)CC3)nn2C)C1`, for which the RP-LC retention time came to 656 s. For `CCOc1ccc(-c2nc(NC(=O)Cc3csc(C)n3)sc2C)cc1`, the RP-LC retention time was 938 s.

In turn, `C=CCNC(=O)c1nnc2n(c1=O)CCN2c1ccc(F)cc1` showed an RP-LC retention time of 622 s. `COCCn1cc(CCNC(=O)Nc2cc(Cl)ccc2C)c2cccnc21` gave an RP-LC retention time of 795 s.

On to `Cn1nccc1C(=O)N1CCc2c(c(CO)nn2Cc2ccccc2)C1`, for which the RP-LC retention time was 630 s.

With `Cc1cnc(C2CN(C(=O)C(C)C)C2)n1CC1CC1`, the RP-LC retention time stood at 562 s. For the compound `COc1ccc(-c2cc(C(=O)NCC(c3ccco3)N(C)C)no2)cc1` (stereo unspecified), the RP-LC retention time came to 661 s. The same measure for `COCCNC(=O)Cc1ccc(NC(=O)c2ccc(Br)o2)cc1`: 637 s.

In the case of `CCC(=O)Nc1ccc(-c2nc(-c3ccc(Cl)cc3)no2)cc1`, the RP-LC retention time was determined as 1130 s. The same measure for `CC(C)CC(=O)NCC12CCC=C1N(C)C(=O)CC2` (stereo unspecified): 691 s; for `Cc1cccc(Nc2nc(C(=O)NCc3ccc(C)o3)nc3ccccc23)c1`: 856 s. For `COCCNC(=O)N1CCCC(C)(C(=O)NCc2ccccc2)C1` (stereo unspecified), the RP-LC retention time was 639 s. The same measure for `Cc1[nH]c(C(=O)N2CCC(CC(=O)NCc3ccc4c(c3)OCO4)CC2)c(C)c1C(=O)OC(C)C`: 797 s; for `Cn1c(N2CCCC(C(=O)NCCCc3ccccc3)C2)cc(=O)n(C)c1=O` (stereo unspecified): 736 s; for `Cc1c2cnn(-c3ccccc3)c(=O)c2c(C)n1CCCC(=O)N1CCN(c2ccccn2)CC1`: 611 s.

In turn, `COC1=CC(=O)C[C@@H](C)C12Oc1c(Cl)c(OC)cc(OC)c1C2=O` (stereo partly specified) returned an RP-LC retention time of 812 s. For `COc1ccc(C(=O)N2CCC3(CC2)N=C(c2ccc(Cl)cc2)NO3)cc1OC`, the RP-LC retention time came to 784 s.

Take `CCc1nccn1Cc1noc(-c2cccc(Cl)c2)n1`: the RP-LC retention time is 656 s.
